Source: US12098154B2, “Inhibitors of cyclin-dependent kinases” (Dana-Farber Cancer Institute, Inc., priority 2015, dated 2024)
Where two headings read alike, the source gives them in different places.

Key:
CDK12 = target: T1, CDK12 (Homo sapiens, UniProt Q9NYV4); experiment: Pulldown assay with biotin-THZ1, blot for Cyclin K; assay type: cell-based; settings: Jurkat cells treated with 1 uM or 200 nM
T1 construct: endogenous in cells; host or cells: Jurkat
Protocol: Specifically. […] Decreased pulldown of cyclin K with biotin-THZ1 indicated a loss of CDK12 binding.
(§1) 6 hours after treatment, cells were washed and harvested by resuspending in lysis buffer (50 mM Hepes pH 7.4, 150 mM NaCl, 1% NP-40, 5 mM EDTA, protease and phosphatase inhibitors) and lysing on ice 30 minutes. Lysates were cleared by centrifugation at 15,000 rpm 30 minutes. Biotin-labeled THZ1 was added to 1 uM to lysates and rotated at 4° C. overnight. Streptavidin-agarose beads were washed and 30 uL slurry was added to each lysate and rotated for 1 hour at 4° C. Beads were washed 5 times with lysis buffer and 50 uL 2×LDS buffer was added to each sample. Samples were boiled and equal volume of protein was loaded onto gel. Gel was transferred to nitrocellulose and blotted for Cyclin K and Cyclin H.

Jurkat cells [1] = experiment: Jurkat proliferation assay (CellTiter-Glo); assay type: cell-based; settings: for IC50: Homo sapiens, Jurkat
Protocol: (§2) Jurkat cells were seeded at a density of 25,000 cells/well in 96-well plates. Cells were then treated with the indicated compounds in a 10-pt dose escalation format from 1 nM to 10 μM or DMSO control for 72 hours. After 72 hours, the cells were assayed using CellTiter-Glo Luminescent Cell Viability Assay (Promega) to determine cell viability by measuring the amount of ATP present in each sample cell population, which is an indicator of cell metabolic activity. […] All data points were performed in biological triplicate. Error bars are +/−SD.
as §2, with “hrs.” for “hours.”, “hrs,” for “hours, the”

CDK7 = target: T2, CDK7 (Homo sapiens, UniProt P50613); experiment: Pulldown assay with biotin-THZ1, blot for Cyclin H; assay type: cell-based; settings: Jurkat cells treated with 1 uM or 200 nM
T2 construct: endogenous in cells; host or cells: Jurkat
T2 sequence (P50613 2-346 limits assumed): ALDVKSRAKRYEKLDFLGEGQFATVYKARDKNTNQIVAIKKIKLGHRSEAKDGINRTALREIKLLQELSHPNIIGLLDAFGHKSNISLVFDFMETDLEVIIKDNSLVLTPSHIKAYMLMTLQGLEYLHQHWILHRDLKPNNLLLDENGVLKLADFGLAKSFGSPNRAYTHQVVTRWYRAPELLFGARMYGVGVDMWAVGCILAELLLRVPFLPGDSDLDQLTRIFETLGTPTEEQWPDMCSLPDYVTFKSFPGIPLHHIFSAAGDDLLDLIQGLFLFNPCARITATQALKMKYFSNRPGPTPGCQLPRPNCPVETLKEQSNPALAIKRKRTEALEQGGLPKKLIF
T2 sequence (P51946 whole entry partner): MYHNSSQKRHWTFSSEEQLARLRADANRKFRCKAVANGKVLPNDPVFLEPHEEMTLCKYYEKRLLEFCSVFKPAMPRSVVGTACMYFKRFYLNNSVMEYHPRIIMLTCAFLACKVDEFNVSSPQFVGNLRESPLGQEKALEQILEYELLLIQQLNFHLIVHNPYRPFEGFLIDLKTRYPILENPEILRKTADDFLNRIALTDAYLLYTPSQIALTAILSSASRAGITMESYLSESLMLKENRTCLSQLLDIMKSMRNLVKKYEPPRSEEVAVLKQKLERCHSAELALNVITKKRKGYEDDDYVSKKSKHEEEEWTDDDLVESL
T2 sequence (P51948 whole entry partner): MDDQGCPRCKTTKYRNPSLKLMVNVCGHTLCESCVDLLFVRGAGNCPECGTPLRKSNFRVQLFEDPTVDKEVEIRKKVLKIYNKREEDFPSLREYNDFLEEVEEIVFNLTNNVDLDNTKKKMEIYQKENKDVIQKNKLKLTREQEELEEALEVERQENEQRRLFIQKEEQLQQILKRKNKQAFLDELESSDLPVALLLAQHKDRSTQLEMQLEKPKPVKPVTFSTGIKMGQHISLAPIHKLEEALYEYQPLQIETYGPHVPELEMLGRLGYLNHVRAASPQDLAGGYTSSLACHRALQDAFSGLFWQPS
Protocol: Compounds E9 and E17 were able to block pulldown of cyclin K at 1 μM and 200 nM. Specifically. […] Decreased pulldown of cyclin K with biotin-THZ1 indicated a loss of CDK12 binding.
as §1

CDK2/CycA = CDK2/CycA (Homo sapiens, UniProt P24941); experiment: CDK2/CycA inhibition (Tables A1, A2); assay type: biochemical
[2] = system: Pol II Ser2 phosphorylation and MCL1 levels; experiment: Washout expression assay (western blot); assay type: cell-based; settings: Jurkat cells, 1 uM, 4 hours, 6 hours
Protocol: 4 hours after treatment, cells were either not treated or washed three times with RPMI media to remove all compound. Cells were replated and allowed to grow for 6 hours. Cells were harvested, washed 3 times with PBS and resuspended in RIPA buffer (25 mM Tris-HCl (pH 7.6), 150 mM NaCl, 1% NP-40, 1% sodium deoxycholate, 0.1% SDS). Equal amount of protein was loaded onto gel and blotted for Pol II Ser2 (Millipore 04-1571), total pol II (Santa Cruz 17798), Tubulin (Cell Signaling 11H10) or MCL1 (Cell Signaling 4572S)

CDK9/CycT = CDK9/CycT (Homo sapiens, UniProt P50750); experiment: CDK9/CycT inhibition (Tables A1, A2); assay type: biochemical
Sequence of CDK9/CycT (P50750 whole entry): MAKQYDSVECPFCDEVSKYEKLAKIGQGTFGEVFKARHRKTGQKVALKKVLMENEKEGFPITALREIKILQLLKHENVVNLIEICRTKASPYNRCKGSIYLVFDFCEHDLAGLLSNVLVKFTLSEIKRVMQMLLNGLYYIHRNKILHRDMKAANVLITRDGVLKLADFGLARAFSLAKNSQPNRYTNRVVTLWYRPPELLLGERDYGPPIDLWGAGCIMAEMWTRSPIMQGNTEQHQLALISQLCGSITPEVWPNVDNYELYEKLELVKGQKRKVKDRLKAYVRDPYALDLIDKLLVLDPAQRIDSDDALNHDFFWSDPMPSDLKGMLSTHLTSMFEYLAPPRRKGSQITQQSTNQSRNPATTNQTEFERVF
Sequence of CDK9/CycT (O60563 whole entry partner): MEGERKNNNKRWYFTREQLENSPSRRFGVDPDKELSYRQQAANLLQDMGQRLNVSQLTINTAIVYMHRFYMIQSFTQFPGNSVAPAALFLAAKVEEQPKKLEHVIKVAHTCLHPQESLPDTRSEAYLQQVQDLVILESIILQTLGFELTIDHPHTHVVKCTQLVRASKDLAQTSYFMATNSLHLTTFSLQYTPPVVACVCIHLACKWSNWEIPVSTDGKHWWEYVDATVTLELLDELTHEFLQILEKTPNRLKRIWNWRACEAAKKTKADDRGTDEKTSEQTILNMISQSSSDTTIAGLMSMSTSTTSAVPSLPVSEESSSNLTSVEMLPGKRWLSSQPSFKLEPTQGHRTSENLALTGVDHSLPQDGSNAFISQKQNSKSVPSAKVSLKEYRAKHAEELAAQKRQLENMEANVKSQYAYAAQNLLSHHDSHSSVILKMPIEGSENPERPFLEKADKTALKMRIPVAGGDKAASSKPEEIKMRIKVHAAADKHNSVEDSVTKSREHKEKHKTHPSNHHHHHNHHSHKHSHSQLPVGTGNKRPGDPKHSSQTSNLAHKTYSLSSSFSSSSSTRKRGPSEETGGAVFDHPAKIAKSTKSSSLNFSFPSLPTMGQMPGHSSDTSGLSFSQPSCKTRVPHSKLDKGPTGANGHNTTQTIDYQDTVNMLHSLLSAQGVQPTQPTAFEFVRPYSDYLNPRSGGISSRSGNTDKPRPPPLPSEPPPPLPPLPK

Jurkat cells [3] = experiment: Growth assay with and without washout; assay type: cell-based; settings: 1 uM, 4 hours treatment, assayed 68 hours after washout
Protocol: Cells were treated with each compound for 4 hours and either no washout (no washout) or had compound removed by washing cells with media (washout). Sixty-eight (68) hours after washout, the cells were assayed for antiproliferative effects. Error bars indicate +/−SD.
4 hours after treatment, cells were either not treated or washed three times with RPMI media to remove all compound. Cells were replated and allowed to grow for 68 hours. Cells were assayed using celltiter glo (Promega) to determine cell viability by measuring the amount of ATP present, which is an indicator of cell metabolic activity. Results are graphed as luminescent values (FIG. 1).

HAP1 cells = experiment: HAP1 cell proliferation assay, wild type vs CDK12 C1039S/CDK13 C1017S; assay type: cell-based; settings: 72 hrs proliferation
Protocol: Double mutant cells are 4-fold less sensitive to E17 compared to wild type cells indicating rescue of CDK12/13 inhibition-induced proliferation defects. HAP1 cells were seeded at a density of 12,000 cells/well in 96-well plates. Twenty-four hours later, cells were treated with the indicated compounds in a 10-pt dose escalation format from 1 nM to 10 μM or DMSO control for 72 hours. After 72 hours, the cells were assayed using CellTiter-Glo Luminescent Cell Viability Assay (Promega) to determine cell viability by measuring the amount of ATP present in each sample cell population, which is an indicator of cell metabolic activity. Results were graphed as fraction of the DMSO control at 72 hours. All data points were performed in biological triplicate. Error bars are +/−SD.
Genome Editing: The CRISPR/Cas9 system was used to mutate the endogenous CDK12 and CDK13 loci to encode for CDK12 C1039S and CDK13 C1017S, both of which are putative CDK12/13 inhibitor-refractory mutants. Target-specific oligonucleotides were cloned into pX330, which carries a codon-optimized version of Cas9 and was further modified to express GFP for identifying transfectants. […]

CDK7/CycH = CDK7/CycH (Homo sapiens, UniProt P50613); experiment: CDK7/CycH inhibition (Tables A1, A2); assay type: biochemical
Sequence of CDK7/CycH (P50613 whole entry): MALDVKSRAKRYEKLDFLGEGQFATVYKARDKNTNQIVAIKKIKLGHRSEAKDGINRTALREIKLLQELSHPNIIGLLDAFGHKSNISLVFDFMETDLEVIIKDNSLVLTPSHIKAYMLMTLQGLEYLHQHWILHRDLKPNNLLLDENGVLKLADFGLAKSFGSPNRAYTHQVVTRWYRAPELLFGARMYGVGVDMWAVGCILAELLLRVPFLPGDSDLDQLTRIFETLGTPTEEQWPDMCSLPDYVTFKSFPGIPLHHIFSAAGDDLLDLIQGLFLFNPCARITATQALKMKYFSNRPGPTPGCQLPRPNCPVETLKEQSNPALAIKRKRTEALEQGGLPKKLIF
Sequence of CDK7/CycH (P51946 whole entry partner): as the sequence (P51946 whole entry partner) above

T1 sequence (Q9NYV4 whole entry): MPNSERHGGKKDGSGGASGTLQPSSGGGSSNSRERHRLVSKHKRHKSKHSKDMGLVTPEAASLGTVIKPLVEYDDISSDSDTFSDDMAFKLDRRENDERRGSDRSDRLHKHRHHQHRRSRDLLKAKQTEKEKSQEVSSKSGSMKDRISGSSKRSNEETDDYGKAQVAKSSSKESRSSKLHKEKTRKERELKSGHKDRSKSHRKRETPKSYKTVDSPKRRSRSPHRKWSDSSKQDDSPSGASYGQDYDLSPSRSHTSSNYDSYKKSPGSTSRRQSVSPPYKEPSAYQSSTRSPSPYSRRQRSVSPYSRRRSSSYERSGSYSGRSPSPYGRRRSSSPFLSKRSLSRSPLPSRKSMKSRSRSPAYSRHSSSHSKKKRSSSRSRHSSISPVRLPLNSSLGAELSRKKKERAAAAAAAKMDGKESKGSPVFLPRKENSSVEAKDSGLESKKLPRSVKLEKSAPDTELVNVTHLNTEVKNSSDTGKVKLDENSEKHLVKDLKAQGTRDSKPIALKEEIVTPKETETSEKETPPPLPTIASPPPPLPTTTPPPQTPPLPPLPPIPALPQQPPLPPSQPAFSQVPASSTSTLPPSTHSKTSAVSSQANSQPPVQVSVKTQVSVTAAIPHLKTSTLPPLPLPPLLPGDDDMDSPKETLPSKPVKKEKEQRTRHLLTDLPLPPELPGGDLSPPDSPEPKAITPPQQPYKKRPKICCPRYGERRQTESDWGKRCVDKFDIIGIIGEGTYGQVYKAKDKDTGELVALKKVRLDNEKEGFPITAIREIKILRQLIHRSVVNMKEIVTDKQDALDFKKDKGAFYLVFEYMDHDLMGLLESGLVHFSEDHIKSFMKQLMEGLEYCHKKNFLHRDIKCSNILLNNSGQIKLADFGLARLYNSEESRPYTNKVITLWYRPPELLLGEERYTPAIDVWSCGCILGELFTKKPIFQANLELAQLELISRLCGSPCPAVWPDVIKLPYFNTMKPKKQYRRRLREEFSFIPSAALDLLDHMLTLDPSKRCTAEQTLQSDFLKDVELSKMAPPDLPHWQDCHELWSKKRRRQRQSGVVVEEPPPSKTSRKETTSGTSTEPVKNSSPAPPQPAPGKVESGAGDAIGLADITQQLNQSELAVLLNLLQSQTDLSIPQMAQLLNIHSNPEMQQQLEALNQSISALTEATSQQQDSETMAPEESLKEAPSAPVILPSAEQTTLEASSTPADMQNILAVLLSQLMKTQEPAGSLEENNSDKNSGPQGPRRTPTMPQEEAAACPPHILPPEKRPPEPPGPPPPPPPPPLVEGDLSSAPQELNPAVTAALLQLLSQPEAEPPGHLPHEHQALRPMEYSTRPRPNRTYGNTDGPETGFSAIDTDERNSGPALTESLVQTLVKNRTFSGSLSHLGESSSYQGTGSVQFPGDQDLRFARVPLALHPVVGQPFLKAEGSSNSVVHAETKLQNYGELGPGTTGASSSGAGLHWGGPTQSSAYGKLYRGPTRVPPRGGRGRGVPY
T1 sequence (O75909 whole entry partner): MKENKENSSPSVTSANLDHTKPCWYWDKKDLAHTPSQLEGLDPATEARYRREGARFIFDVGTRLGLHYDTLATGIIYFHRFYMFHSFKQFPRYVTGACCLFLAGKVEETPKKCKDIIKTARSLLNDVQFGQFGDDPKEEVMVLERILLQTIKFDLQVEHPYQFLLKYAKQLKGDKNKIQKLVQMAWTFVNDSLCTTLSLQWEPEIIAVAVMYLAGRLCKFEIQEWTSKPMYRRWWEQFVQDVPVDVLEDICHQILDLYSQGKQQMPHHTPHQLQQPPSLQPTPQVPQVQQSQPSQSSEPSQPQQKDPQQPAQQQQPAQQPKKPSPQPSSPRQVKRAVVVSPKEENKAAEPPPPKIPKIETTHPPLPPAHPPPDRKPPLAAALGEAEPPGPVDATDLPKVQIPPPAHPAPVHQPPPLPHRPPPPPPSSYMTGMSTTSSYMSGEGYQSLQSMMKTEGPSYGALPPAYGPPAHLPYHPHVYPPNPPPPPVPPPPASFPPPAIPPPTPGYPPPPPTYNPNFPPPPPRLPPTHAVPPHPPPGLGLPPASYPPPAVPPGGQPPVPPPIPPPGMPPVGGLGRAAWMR

C=CC(=O)Nc1cccc(Nc2nc(N[C@H]3CC[C@H](N(C)C)CC3)nc3c(CC)cnn23)c1 [SB1-E-17, N-(3-(2-((1r,4r)-4-(Dimethylamino)cyclohexylamino)-8-ethylpyrazolo[1,5-a][1,3,5]triazin-4-ylamino)phenyl)acrylamide]
Pulldown of Cyclin K by biotin-THZ1 (CDK12 binding) (CDK12): blocks the pulldown of Cyclin K
Mode of inhibition of Jurkat T-ALL cell proliferation (Jurkat cells [1]): irreversiably inhibit
IC50 (Jurkat cells [1]; 72 h, CellTiter-Glo, read-out: IC50 on Jurkat T-ALL cell proliferation): < 100 nM
IC50 (Jurkat cells [1]; read-out: Jurkat IC50): 60.6 nM
Pulldown of Cyclin H by biotin-THZ1 (CDK7 binding) (CDK7): not able to bind to CDK7
IC50 (CDK2/CycA): 247 nM
Effect on Polymerase II Serine 2 phosphorylation and MCL1 levels with and without washout [2]: irreversible effect
IC50 (CDK9/CycT): 171 nM
Inhibition of Jurkat cell viability with and without washout (Jurkat cells [3]): irreversibly inhibit Jurkat cell viability
Loss of sensitivity of CDK12 C1039S/CDK13 C1017S HAP1 cells compared to wild type HAP1 cells (HAP1 cells): 4 fold
IC50 (CDK7/CycH): 1020 nM
